# Patent US11331299B2, “Medicinal use of serrulatane diterpenes” (The University of Sydney, priority 2016, dated 2022)
# Experiments:
# Assay in all cases: biochemical
# Assay type in all cases: binding
# [1] = molecular target: receptors (Bioprint panel) (Homo sapiens, UniProt P07550); settings: […] beta 2 (h) (agonist radioligand); 10 μM; read-out: % Inhibition of Control Specific Binding
# [2] = molecular target: receptors (Bioprint panel) (Homo sapiens, UniProt P08172); settings: […] M2 (h) (antagonist radioligand); 10 μM; read-out: % Inhibition of Control Specific Binding
# [3] = molecular target: receptors (Bioprint panel) (Homo sapiens, UniProt P08908); settings: read-out: % Inhibition of Control Specific Binding
# [4] = molecular target: receptors (Bioprint panel) (Homo sapiens, UniProt P14867); settings: GABAA1 (h) (alpha 1, beta 2, gamma 2) (agonist radioligand); 10 μM; read-out: % Inhibition of Control Specific Binding
# [5] = molecular target: receptors (Bioprint panel) (Homo sapiens, UniProt P18089); settings: […] alpha 2B (h) (antagonist radioligand); 10 μM; read-out: % Inhibition of Control Specific Binding
# [6] = molecular target: receptors (Bioprint panel) (Homo sapiens, UniProt P20309); settings: […] M3 (h) (antagonist radioligand); 10 μM; read-out: % Inhibition of Control Specific Binding
# [7] = molecular target: receptors (Bioprint panel) (Homo sapiens, UniProt P25021); settings: HISTAMINE H2 (h) (antagonist radioligand); 10 μM; read-out: % Inhibition of Control Specific Binding
# [8] = molecular target: receptors (Bioprint panel) (Homo sapiens, UniProt P25101); settings: […] (h) (agonist radioligand); 10 μM; read-out: % Inhibition of Control Specific Binding
# [9] = molecular target: receptors (Bioprint panel) (Homo sapiens, UniProt P29274); settings: ADENOSINE A2A (h) (agonist radioligand); 10 μM; read-out: % Inhibition of Control Specific Binding
# [10] = molecular target: receptors (Bioprint panel) (Homo sapiens, UniProt P29275); settings: ADENOSINE A2B (h) (antagonist radioligand); 10 μM; read-out: % Inhibition of Control Specific Binding
# [11] = molecular target: receptors (Bioprint panel) (Homo sapiens, UniProt P31645); settings: 5-HT transporter (h) (antagonist radioligand); 10 μM; read-out: % Inhibition of Control Specific Binding
# [12] = molecular target: receptors (Bioprint panel) (Homo sapiens, UniProt P32241); settings: […] VPAC1 (VIP1) (h) (agonist radioligand); 10 μM; read-out: % Inhibition of Control Specific Binding
# [13] = molecular target: receptors (Bioprint panel) (Homo sapiens, UniProt P32245); settings: MELANOCORTIN MC4 (h) (agonist radioligand); 10 μM; read-out: % Inhibition of Control Specific Binding
# [14] = molecular target: receptors (Bioprint panel) (Homo sapiens, UniProt P34998); settings: COR[…] FACTOR CRF1 (h) (agonist radioligand); 10 μM; read-out: % Inhibition of Control Specific Binding
# [15] = molecular target: receptors (Bioprint panel) (Homo sapiens, UniProt P35368); settings: […] alpha 1B (h) (antagonist radioligand); 10 μM; read-out: % Inhibition of Control Specific Binding
# [16] = molecular target: receptors (Bioprint panel) (Homo sapiens, UniProt P35414); settings: APJ (apelin) (h) (agonist radioligand); 10 μM; read-out: % Inhibition of Control Specific Binding
# [17] = molecular target: receptors (Bioprint panel) (Homo sapiens, UniProt P37288); settings: VASOPRESSIN V1a (h) (agonist radioligand); 10 μM; read-out: % Inhibition of Control Specific Binding
# [18] = molecular target: receptors (Bioprint panel) (Homo sapiens, UniProt P41968); settings: MELANOCORTIN MC3 (h) (agonist radioligand); 10 μM; read-out: % Inhibition of Control Specific Binding
# [19] = molecular target: receptors (Bioprint panel) (Homo sapiens, UniProt P43119); settings: […] (PGI2) (h) (agonist radioligand); 10 μM; read-out: % Inhibition of Control Specific Binding
# [20] = molecular target: receptors (Bioprint panel) (Homo sapiens, UniProt P43681); settings: NICOTINIC […] N neuronal alpha 4beta 2 (h) (agonist radioligand); 10 μM; read-out: % Inhibition of Control Specific Binding
# [21] = molecular target: receptors (Bioprint panel) (Homo sapiens, UniProt P50406); settings: read-out: % Inhibition of Control Specific Binding
# [22] = molecular target: receptors (Bioprint panel) (Homo sapiens, UniProt Q13639); settings: read-out: % Inhibition of Control Specific Binding
# [23] = molecular target: receptors (Bioprint panel) (Homo sapiens, UniProt Q99705); settings: MELANIN-CONCENTRATING-HORMONE MCH1 (h) (agonist radioligand); 10 μM; read-out: % Inhibition of Control Specific Binding
# [24] = molecular target: receptors (Bioprint panel) (Homo sapiens, UniProt Q9H3N8); settings: HISTAMINE H4 (h) (agonist radioligand); 10 μM; read-out: % Inhibition of Control Specific Binding
# [25] = molecular target: receptors (Bioprint panel) (Homo sapiens, UniProt Q9UBS5); settings: GABA GABAB(1b) (h) (antagonist radioligand); 10 μM; read-out: % Inhibition of Control Specific Binding
# [26] = molecular target: receptors (Bioprint panel) (Homo sapiens, UniProt Q9Y271); settings: read-out: % Inhibition of Control Specific Binding
# Sequence of receptors (Bioprint panel) (Homo sapiens, UniProt Q9Y271) (Q9Y271 whole entry): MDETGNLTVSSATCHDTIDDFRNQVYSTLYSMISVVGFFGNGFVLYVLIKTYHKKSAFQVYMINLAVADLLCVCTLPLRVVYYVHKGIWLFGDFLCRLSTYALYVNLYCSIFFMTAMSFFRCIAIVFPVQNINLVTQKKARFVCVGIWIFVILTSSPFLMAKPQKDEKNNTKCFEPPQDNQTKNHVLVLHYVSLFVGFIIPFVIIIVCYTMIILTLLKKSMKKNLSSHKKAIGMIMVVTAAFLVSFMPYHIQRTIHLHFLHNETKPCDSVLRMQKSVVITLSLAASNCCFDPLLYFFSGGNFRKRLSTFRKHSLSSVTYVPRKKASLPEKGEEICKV
# Sequence of receptors (Bioprint panel) (Homo sapiens, UniProt P14867) (P14867 28-456): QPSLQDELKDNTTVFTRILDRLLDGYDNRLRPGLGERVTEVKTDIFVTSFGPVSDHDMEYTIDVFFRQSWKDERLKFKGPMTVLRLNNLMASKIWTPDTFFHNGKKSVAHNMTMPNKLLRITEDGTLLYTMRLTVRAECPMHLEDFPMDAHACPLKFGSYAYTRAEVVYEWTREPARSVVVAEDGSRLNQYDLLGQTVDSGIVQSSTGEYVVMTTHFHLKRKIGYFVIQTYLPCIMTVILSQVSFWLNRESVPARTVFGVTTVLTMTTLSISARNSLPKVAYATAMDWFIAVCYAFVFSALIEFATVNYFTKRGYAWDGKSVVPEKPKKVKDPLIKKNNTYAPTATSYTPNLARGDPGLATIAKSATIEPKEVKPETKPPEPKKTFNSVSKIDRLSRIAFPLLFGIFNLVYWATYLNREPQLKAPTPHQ
# Sequence of receptors (Bioprint panel) (Homo sapiens, UniProt Q13639) (Q13639 other isoform, or with tags, fused parts or gaps): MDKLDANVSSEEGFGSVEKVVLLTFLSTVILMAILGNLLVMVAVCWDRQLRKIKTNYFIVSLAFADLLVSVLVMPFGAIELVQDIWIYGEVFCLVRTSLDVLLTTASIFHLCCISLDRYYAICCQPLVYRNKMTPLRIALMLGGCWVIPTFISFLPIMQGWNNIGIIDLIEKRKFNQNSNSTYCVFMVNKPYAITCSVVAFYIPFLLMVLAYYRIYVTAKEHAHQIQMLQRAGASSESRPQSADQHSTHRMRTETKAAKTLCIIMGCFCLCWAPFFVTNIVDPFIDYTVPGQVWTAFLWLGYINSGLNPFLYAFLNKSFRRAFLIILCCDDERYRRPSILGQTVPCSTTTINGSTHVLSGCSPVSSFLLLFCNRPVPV
# Sequence of receptors (Bioprint panel) (Homo sapiens, UniProt P37288) (P37288 whole entry): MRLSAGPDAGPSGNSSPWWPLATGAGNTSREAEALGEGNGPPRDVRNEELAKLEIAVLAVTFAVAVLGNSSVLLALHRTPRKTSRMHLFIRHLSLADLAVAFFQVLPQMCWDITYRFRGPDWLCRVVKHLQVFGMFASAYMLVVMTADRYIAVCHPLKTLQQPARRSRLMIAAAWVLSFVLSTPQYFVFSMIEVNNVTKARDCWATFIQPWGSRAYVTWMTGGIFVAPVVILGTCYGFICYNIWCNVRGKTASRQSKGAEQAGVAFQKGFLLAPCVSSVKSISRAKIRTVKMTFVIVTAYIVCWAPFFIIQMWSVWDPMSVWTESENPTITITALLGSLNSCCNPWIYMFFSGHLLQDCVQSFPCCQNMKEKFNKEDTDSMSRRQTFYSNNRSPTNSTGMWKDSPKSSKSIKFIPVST
# Sequence of receptors (Bioprint panel) (Homo sapiens, UniProt Q9UBS5) (Q9UBS5 other isoform, or with tags, fused parts or gaps): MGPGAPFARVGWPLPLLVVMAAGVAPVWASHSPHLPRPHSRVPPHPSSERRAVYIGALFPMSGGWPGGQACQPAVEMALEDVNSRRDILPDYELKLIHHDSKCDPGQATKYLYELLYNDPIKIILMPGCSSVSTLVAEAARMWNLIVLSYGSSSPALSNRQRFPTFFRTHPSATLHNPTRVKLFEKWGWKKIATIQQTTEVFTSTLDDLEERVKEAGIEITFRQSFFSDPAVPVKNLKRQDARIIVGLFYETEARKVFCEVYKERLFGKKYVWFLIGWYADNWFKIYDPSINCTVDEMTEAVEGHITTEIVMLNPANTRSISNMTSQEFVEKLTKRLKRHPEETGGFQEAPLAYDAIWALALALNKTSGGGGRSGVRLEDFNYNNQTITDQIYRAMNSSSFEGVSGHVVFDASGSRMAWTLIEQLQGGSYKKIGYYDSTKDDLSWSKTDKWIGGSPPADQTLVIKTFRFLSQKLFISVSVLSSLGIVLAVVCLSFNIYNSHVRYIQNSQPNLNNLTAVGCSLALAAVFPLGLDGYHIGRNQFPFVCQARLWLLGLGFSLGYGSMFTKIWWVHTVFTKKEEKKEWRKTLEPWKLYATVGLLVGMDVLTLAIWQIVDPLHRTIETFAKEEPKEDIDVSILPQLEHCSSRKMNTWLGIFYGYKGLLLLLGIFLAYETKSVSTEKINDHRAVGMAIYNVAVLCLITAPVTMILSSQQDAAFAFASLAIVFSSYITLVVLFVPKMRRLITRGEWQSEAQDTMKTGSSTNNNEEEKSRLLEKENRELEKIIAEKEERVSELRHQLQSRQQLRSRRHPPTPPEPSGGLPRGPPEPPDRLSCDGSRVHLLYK
# Sequence of receptors (Bioprint panel) (Homo sapiens, UniProt P31645) (P31645 whole entry): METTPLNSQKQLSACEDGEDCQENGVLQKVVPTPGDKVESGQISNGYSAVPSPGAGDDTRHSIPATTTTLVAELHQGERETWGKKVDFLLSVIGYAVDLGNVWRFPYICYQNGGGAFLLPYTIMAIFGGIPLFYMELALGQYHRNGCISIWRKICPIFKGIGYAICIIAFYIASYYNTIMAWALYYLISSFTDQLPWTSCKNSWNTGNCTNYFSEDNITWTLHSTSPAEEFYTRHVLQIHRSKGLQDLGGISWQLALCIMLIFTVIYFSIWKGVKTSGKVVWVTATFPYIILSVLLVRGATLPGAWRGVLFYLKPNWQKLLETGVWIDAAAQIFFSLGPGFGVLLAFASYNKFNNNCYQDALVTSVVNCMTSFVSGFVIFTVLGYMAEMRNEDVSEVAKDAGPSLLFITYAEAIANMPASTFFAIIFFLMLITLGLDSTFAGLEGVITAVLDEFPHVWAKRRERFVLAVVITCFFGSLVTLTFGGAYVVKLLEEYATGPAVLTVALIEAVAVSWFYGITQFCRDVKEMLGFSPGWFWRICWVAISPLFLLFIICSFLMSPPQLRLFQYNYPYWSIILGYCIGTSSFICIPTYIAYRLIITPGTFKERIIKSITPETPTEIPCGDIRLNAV
# Sequence of receptors (Bioprint panel) (Homo sapiens, UniProt P20309) (P20309 whole entry): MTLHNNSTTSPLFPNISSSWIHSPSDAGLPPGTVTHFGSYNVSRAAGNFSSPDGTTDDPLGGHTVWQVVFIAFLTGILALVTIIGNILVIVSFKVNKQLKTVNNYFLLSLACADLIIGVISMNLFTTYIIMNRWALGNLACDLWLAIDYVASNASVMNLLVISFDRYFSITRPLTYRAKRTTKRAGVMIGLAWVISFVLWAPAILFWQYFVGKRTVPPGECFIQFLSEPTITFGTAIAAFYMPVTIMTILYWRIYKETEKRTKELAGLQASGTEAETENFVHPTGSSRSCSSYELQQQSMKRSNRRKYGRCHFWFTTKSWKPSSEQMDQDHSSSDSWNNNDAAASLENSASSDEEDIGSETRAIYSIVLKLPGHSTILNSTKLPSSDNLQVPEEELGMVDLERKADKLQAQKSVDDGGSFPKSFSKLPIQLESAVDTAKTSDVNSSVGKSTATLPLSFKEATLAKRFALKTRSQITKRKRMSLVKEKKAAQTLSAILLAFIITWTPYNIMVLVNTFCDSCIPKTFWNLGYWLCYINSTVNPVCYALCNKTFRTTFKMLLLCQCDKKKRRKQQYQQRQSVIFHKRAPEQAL
# Sequence of receptors (Bioprint panel) (Homo sapiens, UniProt P32245) (P32245 whole entry): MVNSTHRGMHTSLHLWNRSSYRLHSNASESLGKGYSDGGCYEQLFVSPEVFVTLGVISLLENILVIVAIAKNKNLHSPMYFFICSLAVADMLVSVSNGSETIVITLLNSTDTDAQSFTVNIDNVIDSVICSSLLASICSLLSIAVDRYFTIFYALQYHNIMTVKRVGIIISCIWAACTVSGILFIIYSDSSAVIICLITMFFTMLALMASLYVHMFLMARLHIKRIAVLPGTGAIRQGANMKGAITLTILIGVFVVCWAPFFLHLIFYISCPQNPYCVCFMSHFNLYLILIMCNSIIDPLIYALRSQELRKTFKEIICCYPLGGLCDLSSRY
# Sequence of receptors (Bioprint panel) (Homo sapiens, UniProt P08172) (P08172 whole entry): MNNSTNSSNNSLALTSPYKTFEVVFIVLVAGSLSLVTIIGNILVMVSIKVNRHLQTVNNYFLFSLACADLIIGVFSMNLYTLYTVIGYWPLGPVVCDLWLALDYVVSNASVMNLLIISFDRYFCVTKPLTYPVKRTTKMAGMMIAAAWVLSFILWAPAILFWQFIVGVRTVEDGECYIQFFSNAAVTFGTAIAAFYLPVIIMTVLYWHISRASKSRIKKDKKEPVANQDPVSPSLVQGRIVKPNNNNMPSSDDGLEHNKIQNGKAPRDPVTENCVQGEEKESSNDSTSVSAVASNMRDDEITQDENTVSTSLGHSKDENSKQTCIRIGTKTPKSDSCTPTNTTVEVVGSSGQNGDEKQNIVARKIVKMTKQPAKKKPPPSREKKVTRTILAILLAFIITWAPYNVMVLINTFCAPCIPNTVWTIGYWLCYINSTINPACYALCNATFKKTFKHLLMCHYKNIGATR
# Sequence of receptors (Bioprint panel) (Homo sapiens, UniProt P35414) (P35414 whole entry): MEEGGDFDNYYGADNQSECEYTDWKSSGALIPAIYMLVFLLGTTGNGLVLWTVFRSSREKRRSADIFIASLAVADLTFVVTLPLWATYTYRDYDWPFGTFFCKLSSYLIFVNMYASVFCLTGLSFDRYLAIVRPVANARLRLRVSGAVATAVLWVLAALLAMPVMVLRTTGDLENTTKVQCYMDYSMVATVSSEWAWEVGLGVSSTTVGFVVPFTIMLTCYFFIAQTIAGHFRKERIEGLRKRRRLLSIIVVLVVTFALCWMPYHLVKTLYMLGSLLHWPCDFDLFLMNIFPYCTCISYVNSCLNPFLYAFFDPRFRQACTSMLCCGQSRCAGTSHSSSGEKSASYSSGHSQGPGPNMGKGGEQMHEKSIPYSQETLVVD
smiles,measurement,setting,value
"CC(C)=CCC[C@H](CO)[C@@H]1CC[C@@H](C)c2c1cc(C)c(O)c2O [Compound 1, 7,8,18-trihydroxyserrulat-14-ene]",inhibition at 10 µM,[1],2%
same,inhibition at 10 µM,[2],1%
same,inhibition at 10 µM,[3],-18%
same,inhibition at 10 µM,[4],-36%
same,inhibition at 10 µM,[5],7%
same,inhibition at 10 µM,[6],-3%
same,inhibition at 10 µM,[7],37%
same,inhibition at 10 µM,[8],6%
same,inhibition at 10 µM,[9],18%
same,inhibition at 10 µM,[10],8%
same,inhibition at 10 µM,[11],56%
same,inhibition at 10 µM,[12],-9%
same,inhibition at 10 µM,[13],37%
same,inhibition at 10 µM,[14],34%
same,inhibition at 10 µM,[15],41%
same,inhibition at 10 µM,[16],24%
same,inhibition at 10 µM,[17],12%
same,inhibition at 10 µM,[18],60%
same,inhibition at 10 µM,[19],16%
same,inhibition at 10 µM,[20],-3%
same,inhibition at 10 µM,[21],42%
same,inhibition at 10 µM,[22],2%
same,inhibition at 10 µM,[23],-5%
same,inhibition at 10 µM,[24],23%
same,inhibition at 10 µM,[25],-17%
same,inhibition at 10 µM,[26],10%
